System: NCI-H196 complex spheroid growth, percent test/control
Experiment: Anticancer human tumor NCI-H196 cell line growth inhibition [AhR];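 also: seven days of drug exposure starting three days after plating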;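 as to viability, T/C: 100% = DMSO vehicle control wells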
Conditions: for IC50: curve of first compound; for viability, T/C: stronger effect = lower value
How it was run: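 Complex tumor spheroids co-cultured with HUVEC and human MSC stroma; AhR antagonists tested in combination with standard-of-care and investigational agents. Top concentration at or near clinical Cmax (else 10 microM), half-log dilutions; growth expressed as percent test/control.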

[1] = second compound 0.1 µM, first compound 0.0316 µM
[2] = second compound 0.1 µM, first compound 0.1 µM
[3] = second compound 0.1 µM, first compound 0.316 µM
[4] = second compound 0.1 µM, first compound 1 µM
[5] = second compound 0.1 µM, first compound 3.16 µM
[6] = second compound 0.1 µM, first compound 10 µM
[7] = second compound 0.316 µM, first compound 0.0316 µM
[8] = second compound 0.316 µM, first compound 0.1 µM
[9] = second compound 0.316 µM, first compound 0.316 µM
[10] = second compound 0.316 µM, first compound 1 µM
[11] = second compound 0.316 µM, first compound 3.16 µM
[12] = second compound 0.316 µM, first compound 10 µM
[13] = second compound 1 µM, first compound 0.0316 µM
[14] = second compound 1 µM, first compound 0.1 µM
[15] = second compound 1 µM, first compound 0.316 µM
[16] = second compound 1 µM, first compound 1 µM
[17] = second compound 1 µM, first compound 3.16 µM
[18] = second compound 1 µM, first compound 10 µM
[19] = second compound 3.16 µM, first compound 0.0316 µM
[20] = second compound 3.16 µM, first compound 0.1 µM
[21] = second compound 3.16 µM, first compound 0.316 µM
[22] = second compound 3.16 µM, first compound 1 µM
[23] = second compound 3.16 µM, first compound 3.16 µM
[24] = second compound 3.16 µM, first compound 10 µM
[25] = second compound 10 µM, first compound 0.0316 µM
[26] = second compound 10 µM, first compound 0.1 µM
[27] = second compound 10 µM, first compound 0.316 µM
[28] = second compound 10 µM, first compound 1 µM
[29] = second compound 10 µM, first compound 3.16 µM
[30] = second compound 10 µM, first compound 10 µM

In the case of `COc1cc(Nc2ncc3c(n2)-c2ccc(Cl)cc2C(c2c(F)cccc2OC)=NC3)ccc1C(=O)O` + Cc1cncc(-c2nc(NCCc3c[nH]c4ccccc34)c3ncn(C(C)C)c3n2)c1, the IC50 (second compound 0.1 µM) is reported as > 10 µM, the IC50 (second compound 0.316 µM) is reported as > 10 µM and the IC50 (second compound 1 µM) is reported as > 10 µM. The IC50 (second compound 3.16 µM) was > 10 µM, the IC50 (second compound 10 µM) was > 10 µM and the viability, T/C [1] was 96%. For the same molecule, the viability, T/C [2] was 99.5%, the viability, T/C [3] was 98.4% and the viability, T/C [4] was 103%. It also gave a viability, T/C [5] of 118%, a viability, T/C [6] of 153% and a viability, T/C [7] of 98.7%. The viability, T/C [8] was 94.3%, the viability, T/C [9] was 109% and the viability, T/C [10] was 111%. For the same molecule, the viability, T/C [11] was 131%, the viability, T/C [12] was 129% and the viability, T/C [13] was 94.1%. The viability, T/C [14] was 102%, the viability, T/C [15] was 120% and the viability, T/C [16] was 114%. It also gave a viability, T/C [17] of 104%, a viability, T/C [18] of 148% and a viability, T/C [19] of 101%. It also gave a viability, T/C [20] of 104%, a viability, T/C [21] of 127% and a viability, T/C [22] of 115%. It also gave a viability, T/C [23] of 118%, a viability, T/C [24] of 145% and a viability, T/C [25] of 83.1%. For the same molecule, the viability, T/C [26] was 91.8%, the viability, T/C [27] was 106% and the viability, T/C [28] was 97.7%. The viability, T/C [29] was 104% and the viability, T/C [30] was 143%.
For `Nc1ccccc1NC(=O)c1ccc(CNC(=O)OCc2cccnc2)cc1` + Cc1cncc(-c2nc(NCCc3c[nH]c4ccccc34)c3ncn(C(C)C)c3n2)c1, the IC50 (second compound 0.1 µM) was 0.478 µM, the IC50 (second compound 0.316 µM) was 0.614 µM and the IC50 (second compound 1 µM) was 0.54 µM. The IC50 (second compound 3.16 µM) was 0.651 µM, the IC50 (second compound 10 µM) was 0.591 µM and the viability, T/C [1] was 87.4%. For the same molecule, the viability, T/C [2] was 74.2%, the viability, T/C [3] was 57.6% and the viability, T/C [4] was 38.3%. For the same molecule, the viability, T/C [5] was 12.1%, the viability, T/C [6] was 0.58% and the viability, T/C [7] was 75.1%. The viability, T/C [8] was 78.7%, the viability, T/C [9] was 60% and the viability, T/C [10] was 42%. For the same molecule, the viability, T/C [11] was 13%, the viability, T/C [12] was 0.65% and the viability, T/C [13] was 96.3%. It also gave a viability, T/C [14] of 81.4%, a viability, T/C [15] of 67.4% and a viability, T/C [16] of 31.9%. For the same molecule, the viability, T/C [17] was 11.4%, the viability, T/C [18] was 0.72% and the viability, T/C [19] was 87.1%. For the same molecule, the viability, T/C [20] was 85.2%, the viability, T/C [21] was 69.8% and the viability, T/C [22] was 38.3%. For the same molecule, the viability, T/C [23] was 9.78%, the viability, T/C [24] was 1.22% and the viability, T/C [25] was 82.2%. It also gave a viability, T/C [26] of 85.5%, a viability, T/C [27] of 63.5% and a viability, T/C [28] of 38.1%. It also gave a viability, T/C [29] of 8.35% and a viability, T/C [30] of 1.86%.
In the case of `CCN(c1cc(-c2ccc(CN3CCOCC3)cc2)cc(C(=O)NCc2c(C)cc(C)[nH]c2=O)c1C)C1CCOCC1` + Cc1cncc(-c2nc(NCCc3c[nH]c4ccccc34)c3ncn(C(C)C)c3n2)c1, the IC50 (second compound 0.1 µM) is reported as > 3 µM, the IC50 (second compound 0.316 µM) is reported as > 3 µM and the IC50 (second compound 1 µM) is reported as > 3 µM. The IC50 (second compound 3.16 µM) was > 3 µM, the IC50 (second compound 10 µM) was > 3 µM and the viability, T/C (second compound 0.1 µM, first compound 0.00949 µM) was 103%. The viability, T/C (second compound 0.1 µM, first compound 0.03 µM) was 97.3%, the viability, T/C (second compound 0.1 µM, first compound 0.0949 µM) was 97.7% and the viability, T/C (second compound 0.1 µM, first compound 0.3 µM) was 96.9%. It also gave a viability, T/C (second compound 0.1 µM, first compound 0.949 µM) of 99.3%, a viability, T/C (second compound 0.1 µM, first compound 3 µM) of 97.3% and a viability, T/C (second compound 0.316 µM, first compound 0.00949 µM) of 106%. It also gave a viability, T/C (second compound 0.316 µM, first compound 0.03 µM) of 98.8%, a viability, T/C (second compound 0.316 µM, first compound 0.0949 µM) of 102% and a viability, T/C (second compound 0.316 µM, first compound 0.3 µM) of 92.4%. The viability, T/C (second compound 0.316 µM, first compound 0.949 µM) was 99%, the viability, T/C (second compound 0.316 µM, first compound 3 µM) was 98.8% and the viability, T/C (second compound 1 µM, first compound 0.00949 µM) was 103%. The viability, T/C (second compound 1 µM, first compound 0.03 µM) was 101%, the viability, T/C (second compound 1 µM, first compound 0.0949 µM) was 111% and the viability, T/C (second compound 1 µM, first compound 0.3 µM) was 97%. The viability, T/C (second compound 1 µM, first compound 0.949 µM) was 92.2%, the viability, T/C (second compound 1 µM, first compound 3 µM) was 93.3% and the viability, T/C (second compound 3.16 µM, first compound 0.00949 µM) was 109%. For the same molecule, the viability, T/C (second compound 3.16 µM, first compound 0.03 µM) was 105%, the viability, T/C (second compound 3.16 µM, first compound 0.0949 µM) was 114% and the viability, T/C (second compound 3.16 µM, first compound 0.3 µM) was 106%. For the same molecule, the viability, T/C (second compound 3.16 µM, first compound 0.949 µM) was 104%, the viability, T/C (second compound 3.16 µM, first compound 3 µM) was 121% and the viability, T/C (second compound 10 µM, first compound 0.00949 µM) was 86.9%. For the same molecule, the viability, T/C (second compound 10 µM, first compound 0.03 µM) was 81.2%, the viability, T/C (second compound 10 µM, first compound 0.0949 µM) was 86.5% and the viability, T/C (second compound 10 µM, first compound 0.3 µM) was 81.1%. For the same molecule, the viability, T/C (second compound 10 µM, first compound 0.949 µM) was 87.2% and the viability, T/C (second compound 10 µM, first compound 3 µM) was 90.1%.
With `O=C(c1cc(Cc2n[nH]c(=O)c3ccccc23)ccc1F)N1CCN(C(=O)C2CC2)CC1` + Cc1ccccc1N=Nc1ccc(NC(=O)c2ccnn2C)c(C)c1 the IC50 (second compound 0.1 µM) was > 10 µM, the IC50 (second compound 0.316 µM) was > 10 µM and the IC50 (second compound 1 µM) was > 10 µM. For the same molecule, the IC50 (second compound 3.16 µM) was > 10 µM, the IC50 (second compound 10 µM) was > 10 µM and the viability, T/C [1] was 109%. It also gave a viability, T/C [2] of 101%, a viability, T/C [3] of 107% and a viability, T/C [4] of 94.1%. For the same molecule, the viability, T/C [5] was 91.4%, the viability, T/C [6] was 102% and the viability, T/C [7] was 99.5%. For the same molecule, the viability, T/C [8] was 103%, the viability, T/C [9] was 102% and the viability, T/C [10] was 93.1%. It also gave a viability, T/C [11] of 108%, a viability, T/C [12] of 102% and a viability, T/C [13] of 99.4%. The viability, T/C [14] was 107%, the viability, T/C [15] was 98.3% and the viability, T/C [16] was 99.1%. The viability, T/C [17] was 100%, the viability, T/C [18] was 93.6% and the viability, T/C [19] was 90.8%. The viability, T/C [20] was 105%, the viability, T/C [21] was 95.9% and the viability, T/C [22] was 108%. For the same molecule, the viability, T/C [23] was 96.9%, the viability, T/C [24] was 101% and the viability, T/C [25] was 87.2%. It also gave a viability, T/C [26] of 90.1%, a viability, T/C [27] of 99.1% and a viability, T/C [28] of 98.8%. For the same molecule, the viability, T/C [29] was 103% and the viability, T/C [30] was 83.4%.
